We go through 1 molecule from ChEMBL document CHEMBL3576801, “Praeruptorin A inhibits in vitro migration of preosteoclasts and in vivo bone erosion, possibly due to its potential to target calmodulin” (J Nat Prod, 2015).

Series [1] concerns the target T1, Tumor necrosis factor ligand superfamily member 11 (Mus musculus) (UniProt O35235).
T1 sequence (whole entry): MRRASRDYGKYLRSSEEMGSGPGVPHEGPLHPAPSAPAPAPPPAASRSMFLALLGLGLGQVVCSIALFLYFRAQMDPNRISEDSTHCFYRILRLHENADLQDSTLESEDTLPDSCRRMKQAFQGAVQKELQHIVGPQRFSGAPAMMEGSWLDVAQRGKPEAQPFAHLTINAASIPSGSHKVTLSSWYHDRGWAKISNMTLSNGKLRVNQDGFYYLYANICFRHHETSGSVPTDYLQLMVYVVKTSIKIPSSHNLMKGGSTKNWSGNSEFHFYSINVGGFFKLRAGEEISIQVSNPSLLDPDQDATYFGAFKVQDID
Description: Inhibition of RANKL-induced fusion of preosteoclast derived from ICR mouse bone marrow-derived macrophages assessed as formation of tartrate-resistant acid phosphatase-positive multinucleated osteoclast preincubated for 30 mins with M-CSF followed by RANKL induction measured after 1 day by TRAP staining. The class given is functional, cell-based.

The nature of series [2]: Cytotoxicity against preosteoclast derived from ICR mouse bone marrow-derived macrophages assessed as cell viability at 0.1 to 10 uM after 1 day by CCK-8 assay. The following applies: osteoclast, 24 h. The class given is cell-based. On the technique in general: Tetrazolium assays rely on reduction of a dye to a coloured formazan, in cell work by metabolically active cells.

Series [3] deals with T1, Tumor necrosis factor ligand superfamily member 11 (Mus musculus). The experiment in a line: Inhibition of RANKL-induced migration of preosteoclast derived from ICR mouse bone marrow-derived macrophages after 8 hrs by Boyden chamber assay. The class given is functional, cell-based. The following applies: Osteoclast.
Series [4] has as its target Calmodulin-1 (Mus musculus) (UniProt P0DP26). Description: Binding affinity to Ca2+/calmodulin complex in preosteoclast derived from ICR mouse bone marrow-derived macrophages assessed as inhibition of RANKL-induced NFATc1 nuclear translocation at 10 uM preincubated for 30 mins with M-CSF followed by RANKL induction measured after 3 to 7 hrs by Western blot analysis. (In general: Immunoblotting shows a protein as a band on a membrane.)

Series [5] shares this target. Description: Binding affinity to Ca2+/calmodulin complex in preosteoclast derived from ICR mouse bone marrow-derived macrophages assessed as inhibition of RANKL-induced NFATc1 mRNA expression at 10 uM preincubated for 30 mins with M-CSF followed by RANKL induction measured after 3 hrs by real-time PCR analysis. On the technique in general: Quantitative PCR measures a nucleic acid by following its amplification.

Series [6] shares this target. The experiment in a line: Binding affinity to Ca2+/calmodulin complex in preosteoclast derived from ICR mouse bone marrow-derived macrophages assessed as inhibition of RANKL-induced c-Fos mRNA expression at 10 uM preincubated for 30 mins with M-CSF followed by RANKL induction measured after 3 hrs by real-time PCR analysis.
Series [7] has the same target. The experiment in a line: Binding affinity to Ca2+/calmodulin complex in preosteoclast derived from ICR mouse bone marrow-derived macrophages assessed as inhibition of RANKL-induced ATP6v0d2 mRNA expression at 10 uM preincubated for 30 mins with M-CSF followed by RANKL induction measured after 3 hrs by real-time PCR analysis.
The target is the same in series [8]. Description: Binding affinity to Ca2+/calmodulin complex in preosteoclast derived from ICR mouse bone marrow-derived macrophages assessed as inhibition of RANKL-induced DC-STAMP mRNA expression at 10 uM preincubated for 30 mins with M-CSF followed by RANKL induction measured after 3 hrs by real-time PCR analysis.
The target is the same in series [9]. Description: Binding affinity to Ca2+/calmodulin complex in preosteoclast derived from ICR mouse bone marrow-derived macrophages assessed as inhibition of RANKL-induced alphaV-integrin mRNA expression at 10 uM preincubated for 30 mins with M-CSF followed by RANKL induction measured after 3 hrs by real-time PCR analysis.
Series [10] has the same target. Description: Binding affinity to Ca2+/calmodulin complex in preosteoclast derived from ICR mouse bone marrow-derived macrophages assessed as inhibition of RANKL-induced cathepsin K mRNA expression at 10 uM preincubated for 30 mins with M-CSF followed by RANKL induction measured after 3 hrs by real-time PCR analysis.
The target of series [11] is Calmodulin (Bos taurus) (UniProt P62157). The experiment in a line: Binding affinity to bovine brain calmodulin at 0.1 mM after 60 mins by gel mobility shift assay in presence of CaCl2.
The target is the same in series [12]. The experiment in a line: Binding affinity to bovine brain calmodulin at 0.1 mM after 60 mins by gel mobility shift assay in presence of EGTA.
Series [13] deals with Calmodulin-1 (Mus musculus) (UniProt P0DP26). Description: Binding affinity to Ca2+/calmodulin complex in preosteoclast derived from ICR mouse bone marrow-derived macrophages assessed as inhibition of CaMK-4 phosphorylation at T196 preincubated for 30 mins with M-CSF followed by RANKL induction measured after 30 mins by Western blot analysis.
The target is the same in series [14]. Description: Binding affinity to Ca2+/calmodulin complex in preosteoclast derived from ICR mouse bone marrow-derived macrophages assessed as inhibition of CREB phosphorylation at S133 preincubated for 30 mins with M-CSF followed by RANKL induction measured after 30 mins by Western blot analysis.
Series [15] has the same target. Description: Binding affinity to Ca2+/calmodulin complex in preosteoclast derived from ICR mouse bone marrow-derived macrophages assessed as inhibition of NFATc1 nuclear translocation at 0.3 to 10 uM preincubated for 30 mins with M-CSF followed by RANKL induction measured after 30 mins by Western blot analysis.
The target in series [16] is Calmodulin-1 (Homo sapiens) (UniProt P0DP23). Description: Binding affinity to recombinant human calmodulin assessed as inhibition of calcineurin phosphatase activity using R2 phosphopeptide substrate at 3 to 10 uM after 30 mins by malachite green staining-based colorimetric analysis in presence of CaCl2.
Series [17] concerns Mus musculus. The experiment in a line: Antiresorptive activity in ICR mouse assessed as inhibition of LPS-induced cancellous bone loss in distal metaphysis at 2 to 4 mg/kg, ip administered for 8 days with LPS challenge on day 2 and 5 measured on day 9 by microCT analysis. The class given is functional, organism-based.
Series [18] has as its system Mus musculus. The experiment in a line: Antiresorptive activity in ICR mouse assessed as reduction of LPS-induced trabecular bone loss at 2 to 4 mg/kg, ip administered for 8 days with LPS challenge on day 2 and 5 measured on day 9 by hematoxylin and eosin staining. The following applies: Trabecula. The class given is functional, organism-based.
Series [19] concerns Mus musculus. The experiment in a line: Antiresorptive activity in ICR mouse assessed as inhibition of LPS-induced changes in bone volume/tissue volume at 2 to 4 mg/kg, ip administered for 8 days with LPS challenge on day 2 and 5 measured on day 9 by histomorphometric analysis. The class given is functional, organism-based.
The test system of series [20] is Mus musculus. Description: Antiresorptive activity in ICR mouse assessed as inhibition of LPS-induced changes in trabecular thickness at 2 to 4 mg/kg, ip administered for 8 days with LPS challenge on day 2 and 5 measured on day 9 by histomorphometric analysis. The class given is functional, organism-based. Conditions: Trabecula.
Series [21] deals with Mus musculus. The experiment in a line: Antiresorptive activity in ICR mouse assessed as inhibition of LPS-induced changes in trabecular number at 2 to 4 mg/kg, ip administered for 8 days with LPS challenge on day 2 and 5 measured on day 9 by histomorphometric analysis. The class given is functional, organism-based. The following applies: Trabecula.
In series [22] the test system is Mus musculus. The experiment in a line: Antiresorptive activity in ICR mouse assessed as inhibition of LPS-induced changes in bone surface/tissue volume at 2 to 4 mg/kg, ip administered for 8 days with LPS challenge on day 2 and 5 measured on day 9 by histomorphometric analysis. The class given is functional, organism-based.
The subject of series [23] is Mus musculus. Description: Antiresorptive activity in ICR mouse assessed as inhibition of LPS-induced changes in trabecular separation at 2 to 4 mg/kg, ip administered for 8 days with LPS challenge on day 2 and 5 measured on day 9 by histomorphometric analysis. The class given is functional, organism-based. The following applies: Trabecula.
Series [24] has as its system Mus musculus. Description: Antiresorptive activity in ICR mouse assessed as inhibition of LPS-induced changes in bone mineral density at 2 to 4 mg/kg, ip administered for 8 days with LPS challenge on day 2 and 5 measured on day 9 by histomorphometric analysis. The class given is functional, organism-based.

Active and inactive are the calls of the source. No cut-off for these calls is given here.

On to `C/C=C(/C)C(=O)O[C@@H]1[C@@H](OC(C)=O)c2c(ccc3ccc(=O)oc23)OC1(C)C`, for which the inhibition result in series [1], in [3], in [13] and in series [14] was “Dose-dependent effect” each time. In addition, the Activity entry in series [2] is “Non-toxic”. Moreover, the inhibition result in series [4], in [5], in [6], in series [7], in [8] and in series [9] was “Active” throughout. The inhibition result in series [10], in series [15], in series [16], in [17], in series [19] and in series [20] was “Active” throughout. In addition, the inhibition result in series [21], in [22], in series [23] and in [24] was “Active” in each case. Besides, the outcome in series [11] and in [18] was Active. Besides, the outcome in series [12] was inactive.
